Assay results published in ChEMBL document CHEMBL1255172, “Discovery and structure-activity relationship of a novel spirocarbamate series of NPY Y5 antagonists” (Bioorg Med Chem Lett, 2010).

How the values were obtained:
Cytochrome P450 1A2 = target: T1, Cytochrome P450 1A2 (Homo sapiens, UniProt P05177); assay: Inhibition of CYP1A2; format: ADME
T1 sequence (P05177 whole entry): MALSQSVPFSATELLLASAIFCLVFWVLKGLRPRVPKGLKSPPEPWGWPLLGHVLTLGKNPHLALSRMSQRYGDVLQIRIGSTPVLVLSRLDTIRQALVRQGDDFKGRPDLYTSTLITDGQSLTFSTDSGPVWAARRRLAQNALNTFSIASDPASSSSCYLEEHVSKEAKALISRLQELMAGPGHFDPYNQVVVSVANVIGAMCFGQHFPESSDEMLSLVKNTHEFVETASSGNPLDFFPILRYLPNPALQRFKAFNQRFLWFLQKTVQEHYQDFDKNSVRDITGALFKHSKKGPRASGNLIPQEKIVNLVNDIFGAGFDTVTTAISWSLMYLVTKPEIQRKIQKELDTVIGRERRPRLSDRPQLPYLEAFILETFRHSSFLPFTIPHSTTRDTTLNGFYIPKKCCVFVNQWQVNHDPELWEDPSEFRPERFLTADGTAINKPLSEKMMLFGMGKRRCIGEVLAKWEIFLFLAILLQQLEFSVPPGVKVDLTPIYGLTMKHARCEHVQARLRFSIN

Cytochrome P450 3A4 = Cytochrome P450 3A4 (Homo sapiens, UniProt P08684); assay: Inhibition of CYP3A4; format: ADME
Cytochrome P450 2D6 = Cytochrome P450 2D6 (Homo sapiens, UniProt P10635); assay: Inhibition of CYP2D6; format: ADME
Cytochrome P450 2C19 = Cytochrome P450 2C19 (Homo sapiens, UniProt P33261); assay: Inhibition of CYP2C19; format: ADME
[1] = Clearance in rat blood at 0.5 mg/kg, iv and 1 mg/kg, po; format: ADME, organism-based; settings: whole blood
Cytochrome P450 2C9 = Cytochrome P450 2C9 (Homo sapiens, UniProt P11712); assay: Inhibition of CYP2C9; format: ADME
Liver microsomes [2] = assay: Intrinsic clearance in rat liver microsome; format: ADME
Liver microsomes [3] = assay: Intrinsic clearance in human liver microsome; format: ADME
[4] = target: T2, Neuropeptide Y receptor type 5 (Homo sapiens, UniProt Q15761); assay: Antagonist activity at human NPY Y5 receptor; format: functional
T2 sequence (Q15761 whole entry): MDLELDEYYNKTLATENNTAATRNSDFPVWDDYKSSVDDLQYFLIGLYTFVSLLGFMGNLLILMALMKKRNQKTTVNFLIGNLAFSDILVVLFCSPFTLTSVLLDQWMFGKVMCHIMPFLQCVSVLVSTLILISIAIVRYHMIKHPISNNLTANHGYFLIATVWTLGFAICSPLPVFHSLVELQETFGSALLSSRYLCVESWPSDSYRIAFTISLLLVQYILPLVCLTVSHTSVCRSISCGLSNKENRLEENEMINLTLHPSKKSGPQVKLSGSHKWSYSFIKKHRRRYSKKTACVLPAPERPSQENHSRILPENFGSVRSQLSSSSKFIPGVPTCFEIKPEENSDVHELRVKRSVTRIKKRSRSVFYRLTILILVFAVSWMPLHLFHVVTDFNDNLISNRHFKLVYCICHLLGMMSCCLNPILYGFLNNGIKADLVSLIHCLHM

[5] = Protein binding in rat brain assessed as unbound fraction; format: ADME, tissue-based; settings: brain tissue
[6] = Ratio of drug uptake from blood to brain in rat; format: ADME, tissue-based; settings: brain and blood
Rattus norvegicus = assay: In vivo antagonist activity at NPY Y5 receptor in orally dosed rat assessed as reduction in food intake; settings: oral, read-out: MED
[7] = Oral bioavailability in rat at 1 mg/kg; format: ADME, organism-based; settings: in vivo

Chain of Cytochrome P450 2D6 (P10635 whole entry): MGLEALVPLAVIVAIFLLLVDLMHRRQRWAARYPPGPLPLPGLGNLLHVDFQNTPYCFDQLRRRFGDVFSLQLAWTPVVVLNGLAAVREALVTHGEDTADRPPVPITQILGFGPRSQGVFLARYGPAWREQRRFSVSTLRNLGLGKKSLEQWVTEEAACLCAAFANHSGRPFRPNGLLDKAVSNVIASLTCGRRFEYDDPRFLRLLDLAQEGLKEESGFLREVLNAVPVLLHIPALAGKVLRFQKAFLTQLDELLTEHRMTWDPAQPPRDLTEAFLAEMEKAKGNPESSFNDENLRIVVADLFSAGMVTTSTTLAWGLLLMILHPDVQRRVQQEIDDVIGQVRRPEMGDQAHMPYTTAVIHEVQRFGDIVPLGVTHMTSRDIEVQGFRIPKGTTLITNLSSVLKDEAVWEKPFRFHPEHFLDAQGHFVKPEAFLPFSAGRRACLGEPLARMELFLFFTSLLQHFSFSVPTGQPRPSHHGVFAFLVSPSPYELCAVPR
Chain of Cytochrome P450 3A4 (P08684 whole entry): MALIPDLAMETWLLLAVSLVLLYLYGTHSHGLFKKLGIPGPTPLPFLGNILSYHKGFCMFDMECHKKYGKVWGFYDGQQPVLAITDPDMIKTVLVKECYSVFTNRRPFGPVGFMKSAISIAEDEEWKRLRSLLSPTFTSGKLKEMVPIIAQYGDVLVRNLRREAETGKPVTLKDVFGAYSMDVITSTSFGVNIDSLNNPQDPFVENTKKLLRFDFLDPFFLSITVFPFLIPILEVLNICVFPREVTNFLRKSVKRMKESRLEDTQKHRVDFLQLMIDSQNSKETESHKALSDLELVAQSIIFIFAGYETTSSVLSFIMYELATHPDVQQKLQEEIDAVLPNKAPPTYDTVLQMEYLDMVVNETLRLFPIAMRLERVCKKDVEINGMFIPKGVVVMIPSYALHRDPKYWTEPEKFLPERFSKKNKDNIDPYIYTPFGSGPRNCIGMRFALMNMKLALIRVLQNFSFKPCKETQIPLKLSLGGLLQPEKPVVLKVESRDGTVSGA
Chain of Cytochrome P450 2C19 (P33261 whole entry): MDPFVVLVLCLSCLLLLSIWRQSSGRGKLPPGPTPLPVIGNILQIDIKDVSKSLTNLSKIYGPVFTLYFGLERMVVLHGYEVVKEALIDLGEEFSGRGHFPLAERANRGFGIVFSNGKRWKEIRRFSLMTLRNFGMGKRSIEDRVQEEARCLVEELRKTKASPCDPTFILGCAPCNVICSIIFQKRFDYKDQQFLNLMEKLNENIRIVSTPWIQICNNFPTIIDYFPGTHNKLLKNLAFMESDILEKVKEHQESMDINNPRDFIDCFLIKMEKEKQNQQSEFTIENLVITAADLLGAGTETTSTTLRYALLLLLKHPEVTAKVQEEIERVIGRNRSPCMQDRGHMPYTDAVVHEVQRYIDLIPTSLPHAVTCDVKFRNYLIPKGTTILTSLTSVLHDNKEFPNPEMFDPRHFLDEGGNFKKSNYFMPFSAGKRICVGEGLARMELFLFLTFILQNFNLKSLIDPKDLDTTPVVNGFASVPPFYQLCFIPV
Chain of Cytochrome P450 2C9 (P11712 whole entry): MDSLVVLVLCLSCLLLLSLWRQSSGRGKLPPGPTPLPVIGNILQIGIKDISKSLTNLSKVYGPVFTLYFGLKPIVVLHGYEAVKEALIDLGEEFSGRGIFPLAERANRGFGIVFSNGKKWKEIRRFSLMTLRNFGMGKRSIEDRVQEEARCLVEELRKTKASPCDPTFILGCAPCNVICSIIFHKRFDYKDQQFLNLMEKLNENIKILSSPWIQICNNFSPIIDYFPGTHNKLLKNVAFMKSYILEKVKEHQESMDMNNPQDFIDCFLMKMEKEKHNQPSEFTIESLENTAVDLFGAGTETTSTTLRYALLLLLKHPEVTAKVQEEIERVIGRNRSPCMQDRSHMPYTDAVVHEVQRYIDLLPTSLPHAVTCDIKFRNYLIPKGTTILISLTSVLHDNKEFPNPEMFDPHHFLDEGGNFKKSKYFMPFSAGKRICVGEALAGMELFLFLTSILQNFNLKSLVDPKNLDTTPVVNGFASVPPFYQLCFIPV

Structure (SMILES)	INH (Cytochrome P450 1A2)	INH (Cytochrome P450 3A4)	INH (Cytochrome P450 2D6)	INH (Cytochrome P450 2C19)	clearance [1]	INH (Cytochrome P450 2C9)	clearance (Liver microsomes [2])	clearance (Liver microsomes [3])	Ki [4]	fraction unbound [5]	CL (Liver microsomes [2])	Kp [6]	CL (Liver microsomes [3])	minimal effective dose (Rattus norvegicus)	bioavailability [7]
FC(F)(F)c1ccc(Nc2nc(-c3ccccn3)cs2)cc1	< 0.1 µM	< 0.1 µM	< 0.1 µM	< 0.1 µM	27 mL/min/kg	< 0.1 µM	–	–	–	–	–	–	–	–	–
O=C(Nc1nc(-c2ccccn2)cs1)N1CCC2(CC1)CN(c1ccccc1)C(=O)O2	> 10 µM	> 10 µM	> 10 µM	> 10 µM	–	> 10 µM	0.5 mL/min/g	0.6 mL/min/g	–	–	–	–	–	–	–
Cc1ncccc1N1C[C@]2(CC[C@@H](CNc3cnn(-c4ccccc4F)c3)CC2)OC1=O	> 10 µM	> 10 µM	> 10 µM	–	–	> 10 µM	–	–	0.631 nM	–	–	–	–	–	–
O=C1O[C@]2(CC[C@H](CNc3cnn(-c4ccccc4F)c3)CC2)CN1c1cccnc1	> 10 µM	1 µM	> 10 µM	8 µM	–	7 µM	–	–	0.1 nM	0.025	–	–	–	–	–
O=C1O[C@]2(CC[C@H](CNc3ccc(-c4nccs4)cn3)CC2)CN1c1ccccn1	> 10 µM	7 µM	1 µM	3 µM	–	0.3 µM	–	–	0.126 nM	–	–	–	–	–	–
O=C1O[C@]2(CC[C@H](CNc3ccc(-c4ncccn4)cn3)CC2)CN1c1ccccn1	> 10 µM	> 10 µM	> 10 µM	10 µM	–	5 µM	–	–	0.158 nM	0.035	–	–	–	–	–
O=C1O[C@]2(CC[C@H](CNc3ccc(OC4CCC4)cn3)CC2)CN1c1ccccn1	> 10 µM	3 µM	2 µM	7 µM	–	2 µM	–	–	0.158 nM	–	–	–	–	–	–
O=C1O[C@]2(CC[C@H](CNc3ccc(C(F)(F)F)cn3)CC2)CN1c1ccccn1	> 10 µM	> 10 µM	> 10 µM	5 µM	–	2 µM	–	–	1 nM	0.005	–	–	–	–	–
O=C1O[C@]2(CC[C@H](CNc3ccc(-c4ccccc4F)nc3)CC2)CN1c1ccccn1	–	9 µM	2 µM	9 µM	–	1 µM	–	–	5.01 nM	–	–	–	–	–	–
O=C1O[C@]2(CC[C@H](CNc3ccc(-c4ccccc4F)nn3)CC2)CN1c1ccccn1	5 µM	> 10 µM	2 µM	2 µM	–	1 µM	–	–	0.0631 nM	0.016	–	–	–	–	–
O=C1O[C@]2(CC[C@H](CNc3cnc(-c4ccccc4F)cn3)CC2)CN1c1ccccn1	> 10 µM	> 10 µM	> 10 µM	2 µM	–	0.3 µM	–	–	0.0251 nM	0.002	–	–	–	–	–
O=C1O[C@]2(CC[C@H](CNc3nc(-c4ccccn4)cs3)CC2)CN1c1ccccn1	> 10 µM	3 µM	> 10 µM	3 µM	30 mL/min/kg	6 µM	–	–	0.0794 nM	0.01	3.1 mL/min/g	0.7	4 mL/min/g	10 mg/kg	35%
O=C1O[C@]2(CC[C@H](CNc3ccn(-c4ccccc4F)n3)CC2)CN1c1ccccn1	> 10 µM	> 10 µM	> 10 µM	4 µM	–	2 µM	–	–	0.0316 nM	–	–	–	–	–	–
